Calls of active or inactive are those of the source. The calls are words filed in the database; no cut-off is given here.
Columns and labels:
[1] = Inhibition of Bacillus stearothermophilus alpha-glucosidase type IV; parameters: species or system Geobacillus stearothermophilus
[2] = tested on: Geobacillus stearothermophilus; experiment: Inhibition of Bacillus stearothermophilus alpha-glucosidase type IV at 10ug/mL
[3] = tested on: Geobacillus stearothermophilus; experiment: Inhibition of Bacillus stearothermophilus alpha-glucosidase type IV at 100ug/mL
PC-3 = experiment: Cytotoxicity against human PC3 cells; format: functional, cell-based

IC50 [1]	SMILES	Activity [2]	inhibition [3]	IC50 (PC-3)
33 nM	C[C@H]1O[C@H](O[C@H]2[C@H](O)[C@@H](O)[C@@H](O[C@H]3[C@H](O)[C@@H](O)C(O)O[C@@H]3CO)O[C@@H]2CO)[C@H](O)[C@@H](O)[C@@H]1N[C@H]1C=C(CO)[C@@H](O)[C@H](O)[C@H]1O (stereo partly drawn) [ACARBOSE]			
	O=c1cc(-c2ccc(O[C@@H]3O[C@H](CO)[C@@H](O)[C@H](O)[C@H]3O)cc2)oc2cc(O)cc(O)c12	inactive	18.7%	
	CCCCCCCCCC[C@@H]1c2c(cc(O)c3c(=O)cc(-c4ccc(O[C@@H]5O[C@H](CO)[C@@H](O)[C@H](O)[C@H]5O)cc4)oc23)OO[C@@]12C(=O)O[C@H](C)C2=O	inactive	64.7%	
	CCCCCCCCCC[C@@H]1c2c(c([C@@H]3O[C@H](CO)[C@@H](O)[C@H](O)[C@H]3O[C@@H]3O[C@@H](C)[C@H](O)[C@@H](O)[C@H]3O)c(O)c3c(=O)cc(-c4ccc(O)cc4)oc23)OO[C@@]12C(=O)O[C@H](C)C2=O [APIGENOSYLIDE A]			> 30 µg/mL
	CCCCCCCC[C@@H]1c2c(c([C@@H]3O[C@H](CO)[C@@H](O)[C@H](O)[C@H]3O[C@@H]3O[C@@H](C)[C@H](O)[C@@H](O)[C@H]3O)c(O)c3c(=O)cc(-c4ccc(O)cc4)oc23)OO[C@@]12C(=O)O[C@H](C)C2=O	inactive	93.7%	
